The text below walks through data of ChEMBL document CHEMBL5390237, “Discovery of Selective Histone Deacetylase 1 and 2 Inhibitors: Screening of a Focused Library Constructed by Click Chemistry, Kinetic Binding Analysis, and Biological Evaluation” (J Med Chem, 2023).

The structures appear in SMILES notation.

Usually inhibition stands for the change of the read-out against control, counted positive when it falls.

Chain of Histone deacetylase 2 (Q92769 whole entry): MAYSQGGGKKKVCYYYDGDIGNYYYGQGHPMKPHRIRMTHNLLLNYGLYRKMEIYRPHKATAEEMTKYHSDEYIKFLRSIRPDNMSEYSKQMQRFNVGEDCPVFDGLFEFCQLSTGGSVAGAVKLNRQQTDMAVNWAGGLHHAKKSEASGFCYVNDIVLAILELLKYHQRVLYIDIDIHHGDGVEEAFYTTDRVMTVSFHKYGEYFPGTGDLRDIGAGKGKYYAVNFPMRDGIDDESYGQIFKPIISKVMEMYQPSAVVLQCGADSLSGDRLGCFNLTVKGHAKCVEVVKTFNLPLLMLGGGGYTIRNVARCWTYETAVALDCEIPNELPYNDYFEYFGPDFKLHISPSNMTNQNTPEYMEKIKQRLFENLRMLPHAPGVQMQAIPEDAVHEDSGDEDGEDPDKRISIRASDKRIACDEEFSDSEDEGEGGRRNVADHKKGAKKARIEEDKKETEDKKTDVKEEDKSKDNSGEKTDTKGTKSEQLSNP

The assay has as its target Histone deacetylase 2 (Homo sapiens, UniProt Q92769). Kind of assay: Inhibition of full-length recombinant human C-terminal GST tagged HDAC2 expressed in Sf9 insect cells using aminoluciferin peptide substrate at 100 nM preincubated for 3 hrs followed by substrate addition and measured after 30 mins by HDAC-Glo I/II chemiluminescence assay. Conditions: time 3.5 hrs.
Take `Nc1ccc(-c2cccs2)cc1NC(=O)CCc1cn(Cc2cccc(C(=O)O)c2)nn1`: the inhibition is 3%. The result for `Nc1ccc(-c2cccs2)cc1NC(=O)c1cn(CCc2ccc([N+](=O)[O-])cc2)nn1` reads 17%. The result for `Cc1csc(CCn2cc(CCC(=O)Nc3cc(-c4ccc(F)cc4)ccc3N)nn2)n1` reads 37%; that for `Nc1ccc(-c2ccccc2)cc1NC(=O)c1cn(CCc2ccc(-c3ccccc3)cc2)nn1`, 0%. Take `Nc1ccc(-c2ccccc2)cc1NC(=O)CCc1cn(CCc2ccccc2)nn1`: the inhibition is 24%. `CCc1ccc(Cn2cc(C(=O)Nc3cc(-c4ccc(F)cc4)ccc3N)nn2)cc1`: the inhibition turned out to be 0%. The result for `Cc1ccc(-n2cc(-c3ccc(C(=O)Nc4cc(-c5cccs5)ccc4N)cc3)nn2)cc1C` reads 0%; that for `Cc1cccc(C)c1NC(=O)Cn1cc(CCC(=O)Nc2cc(-c3ccc(F)cc3)ccc2N)nn1`, 18%; that for `Nc1ccc(-c2cccs2)cc1NC(=O)c1cccc(-c2cn(-c3ccc(I)cc3)nn2)c1`, 7%.

In the case of `Nc1ccc(-c2ccc(F)cc2)cc1NC(=O)c1cn(CCN2CCc3ccccc3C2)nn1`, the inhibition was found to be 22%. As to `Nc1ccc(-c2ccsc2)cc1NC(=O)CCc1cn(-c2ccccc2-c2ccccc2)nn1`, the inhibition was 2%. The result for `Nc1ccc(-c2ccc(F)cc2)cc1NC(=O)c1cn(/C=C/c2ccccc2)nn1` reads 3%.

Turning to `Nc1ccc(-c2cccs2)cc1NC(=O)c1cn(CCN2CCc3ccccc3C2)nn1`, the inhibition turned out to be 18%.

As for `Nc1ccc(-c2cccnc2)cc1NC(=O)CCc1cn(CCc2ccccn2)nn1`, the inhibition turned out to be 0%. The result for `Nc1ccc(-c2ccccc2)cc1NC(=O)CCc1cn(-c2ccccc2-c2ccccc2)nn1` reads 2%; that for `Nc1ccc(-c2cccs2)cc1NC(=O)c1ccc(-c2cn(CCc3ccc([N+](=O)[O-])cc3)nn2)s1`, 23%; that for `Nc1ccc(-c2cccs2)cc1NC(=O)c1ccc(-c2cn(Cc3ccc4ccccc4c3)nn2)s1`, 3%. The result for `Nc1ccc(-c2ccccc2)cc1NC(=O)c1cn(Cc2ccc(C(=O)O)cc2)nn1` reads 27%. The result for `Nc1ccc(-c2cccs2)cc1NC(=O)c1cccc(-c2cn(CCc3cccc(Cl)c3)nn2)c1` reads 0%; that for `Nc1ccc(-c2ccccc2)cc1NC(=O)CCc1cn(Cc2nc3ccccc3[nH]2)nn1`, 27%. Regarding `Nc1ccc(-n2cc(-c3ccc(C(=O)Nc4cc(-c5cccs5)ccc4N)cc3)nn2)cc1`, the inhibition is 51%.

For `Nc1ccc(-c2ccc(F)cc2)cc1NC(=O)c1cn(CCc2ccccc2[N+](=O)[O-])nn1`, the inhibition was 12%. Next, `Nc1ccc(-c2cccs2)cc1NC(=O)c1cccc(-c2cn(CCc3ccsc3)nn2)c1`: 0%; `Cc1ccccc1CCn1cc(CCC(=O)Nc2cc(-c3cccs3)ccc2N)nn1`: 13%. The result for `Nc1ccc(-c2ccc(F)cc2)cc1NC(=O)c1cn(Cc2ccc(C(=O)O)cc2)nn1` reads 65%.

For `Nc1ccc(-c2cccs2)cc1NC(=O)c1ccc(-c2cn(CCc3ccc(F)cc3)nn2)cc1`, the inhibition was 14%. The result for `Nc1ccc(-c2ccc(F)cc2)cc1NC(=O)c1cn(-c2ccc([N+](=O)[O-])cc2)nn1` reads 8%; that for `Nc1ccc(-c2cccs2)cc1NC(=O)c1ccc(-c2cn(CCc3cccc([N+](=O)[O-])c3)nn2)cc1`, 25%; that for `Nc1ccc(-c2cccs2)cc1NC(=O)c1ccc(-c2cn(CCc3ccc(Cl)cc3)nn2)cc1`, 18%. The result for `Nc1ccc(-c2cccs2)cc1NC(=O)c1cccc(-c2cn(CCC3CCCCC3)nn2)c1` reads 0%; that for `Nc1ccc(-c2cccs2)cc1NC(=O)c1ccc(-c2cn(Cc3ccc(Oc4ccccc4)cc3)nn2)s1`, 0%; that for `Nc1ccc(-c2ccsc2)cc1NC(=O)c1cn(CC2CCCCC2)nn1`, 0%. The result for `CCc1ccc(Cn2cc(C(=O)Nc3cc(-c4ccccc4)ccc3N)nn2)cc1` reads 0%; that for `Nc1ccc(-c2cccs2)cc1NC(=O)c1cn(Cc2cccc(-c3ccccc3)c2)nn1`, 6%.

Take `Nc1ccc(-c2ccccc2)cc1NC(=O)CCc1cn(CC(=O)Nc2ccc(F)cc2)nn1`: the inhibition stood at 11%. Next, `Nc1ccc(-c2cccnc2)cc1NC(=O)CCc1cn(Cc2ccc(C(=O)O)cc2)nn1`: 7%; `Cc1ccc(CCn2cc(CCC(=O)Nc3cc(-c4ccsc4)ccc3N)nn2)cc1`: 24%. The result for `Nc1ccc(-c2ccc(F)cc2)cc1NC(=O)c1cn(CS(=O)(=O)c2ccccc2)nn1` reads 7%; that for `Nc1ccc(-c2cccs2)cc1NC(=O)c1ccc(-c2cn(Cc3cccc(C(=O)O)c3)nn2)cc1`, 0%; that for `Nc1ccc(-c2cccs2)cc1NC(=O)c1cn(-c2ccc(Br)cc2)nn1`, 0%. For the compound `Nc1ccc(-c2ccsc2)cc1NC(=O)CCc1cn(CCCCCc2ccccc2)nn1`, the inhibition was 5%. Consider `Nc1ccc(-c2ccccc2)cc1NC(=O)c1cn(CC23CC4CC(CC(C4)C2)C3)nn1`, for which the inhibition stood at 0%. The result for `Nc1ccc(-c2cccs2)cc1NC(=O)c1cccc(-c2cn(CCc3c[nH]c4ccccc34)nn2)c1` reads 6%; that for `Nc1ccc(-c2ccccc2)cc1NC(=O)CCc1cn(CCN2CCc3ccccc3C2)nn1`, 11%; that for `Nc1ccc(-c2ccc(F)cc2)cc1NC(=O)CCc1cn(CCc2cccc3ccccc23)nn1`, 0%.

As for `Nc1ccc(-c2ccccc2)cc1NC(=O)c1cn(CCc2ccccn2)nn1`, the inhibition worked out at 0%. For `CCc1ccc(Cn2cc(C(=O)Nc3cc(-c4ccsc4)ccc3N)nn2)cc1`, the inhibition stood at 0%. The result for `Nc1ccc(-c2ccccc2)cc1NC(=O)CCc1cn(CCCCCCCC(=O)O)nn1` reads 0%; that for `Cc1cccc(CCn2cc(CCC(=O)Nc3cc(-c4ccc(F)cc4)ccc3N)nn2)c1`, 36%; that for `Nc1ccc(-c2cccnc2)cc1NC(=O)CCc1cn(CCc2ccc(C(=O)O)cc2)nn1`, 9%.

As to `Nc1ccc(-c2cccs2)cc1NC(=O)c1cn(CCc2ccccc2C(F)(F)F)nn1`, the inhibition turned out to be 5%. Next, `Nc1ccc(-c2cccs2)cc1NC(=O)c1cccc(-c2cn(Cc3cccc4ccccc34)nn2)c1`: 14%. The result for `Nc1ccc(-c2ccccc2)cc1NC(=O)c1cn(CCc2ccc(C(=O)O)cc2)nn1` reads 9%. For `COc1ccc(CCn2cc(CCC(=O)Nc3cc(-c4cccs4)ccc3N)nn2)cc1`, the inhibition came out at 21%. Next, `Nc1ccc(-c2cccs2)cc1NC(=O)c1cccc(-c2cn(CCCCCCC(=O)O)nn2)c1`: 30%. In the case of `Nc1ccc(-c2cccs2)cc1NC(=O)c1ccc(-c2cn(CC3CCCCC3)nn2)s1`, the inhibition amounted to 0%. Next, `Nc1ccc(-c2ccccc2)cc1NC(=O)c1cn(-c2ccc([N+](=O)[O-])cc2)nn1`: 0%; `Nc1ccc(-c2ccccc2)cc1NC(=O)CCc1cn(CCCCCc2ccccc2)nn1`: 0%; `Nc1ccc(-c2cccs2)cc1NC(=O)c1cccc(-c2cn(CCCc3ccccc3)nn2)c1`: 4%. Next, `Nc1ccc(-c2cccs2)cc1NC(=O)c1ccc(-c2cn(Cc3ccc(C(=O)O)cc3)nn2)s1`: 61%.
